The text below walks through data of US10662225B2, “Backbone cyclized inhibitory peptides of myeloid differentiation factor 88 (MyD88)” (Yissum Research Development Company of the Hebrew …, priority 2016, dated 2020).

Entries after “also recorded” stand apart in the source; their conditions may differ. Numbered stars: 1 amine (or outer) side, 2 acyl side, 3 side chain; on linkers, the order of the positions; unused ones are H or OH. Bridge positions count the residues as written; N and C are the ends. Square brackets hold non-standard residues; d marks the D form. Peptide text beside a SMILES is read from it. CO = O=C([*:1])[*:2]; Nlys = NCCCCNCC(=O)O

For series [1], the system named is MyD88-dependent signaling. The experiment in a line: Library screen: TNFα production by U937 macrophage cells stimulated with PAM3Csk. The class given is cell-based, human. The note with it: PAM3Csk overnight, peptide concentration estimated 2-4 μM. As for the experimental part:
FIG. 4. Screening results of the peptide library of 16 compounds. Human macrophage U937 cells were stimulated with PAM3csk overnight in the absence or presence of each of the cyclic peptides. Human TNFα levels in the supernatants were determined by ELISA. […].
The backbone cyclic library of 16 compounds synthesized in Example 3 was screened for inhibition of MyD88-dependent signaling through innate immune receptors employing the human macrophage cell line U937. […] The concentration of the cyclic peptides in the library was estimated to be 2-4 μM.

In series [2] the test system is MOG35-55/CFA induced EAE. Briefly: MOG35-55/CFA induced EAE model of multiple sclerosis. In kind it is in vivo, mice. Here is the method: FIG. 2. MIP treatment reduces severity of EAE. Mice were immunized with MOG35-55/CFA with PTX administration at day 0 and at 48 h. Groups of mice were treated with MIP (SEQ ID NO: 1, squares) or PBS (triangles) and mean clinical score was calculated.
FIG. 8. 4×4MyDI lowers disease in mouse EAE model. Mice were immunized with MOG35-55/CFA with PTX administration at day 0 and at 48 h. Groups of mice were treated with 4×4MyDI (squares, n=7) or PBS as control (circles, n=4) from day 0, three times a week.
FIG. 15. 4×4MyDI reduces severity of EAE. C57BL/6 mice were immunized with MOG35-55/CFA and administered pertussis toxin on day zero and after 48 h. Groups of mice were treated with 4×4MyDI at 4 mg/kg from day zero, three times a week, for a total of 9 treatments (squares, n=7) or an identical volume of PBS as control, using the same schedule of administration (circles, n=7). […] Clinical disease was scored daily. ***P<0.0001, 2-way ANOVA.
Effective peptides are examined for treatment of mice with EAE (the animal model of MS) applying several disease models. One model is described in Owens T. and Sriram S. Neurologic Clinics (1995) 13(1):51-73. In this model, C57B1 mice are immunized with the MOG protein in adjuvant and the onset of paralysis which appears 10-14 days following the induction, is evaluated daily. Two groups of animals are treated with two doses of the peptide administered orally by cannula on a daily basis, from the day of EAE-induction. One month after the disease onset, the animals are sacrificed and their brains and spinal cords are processed for histopathological analysis (performed by a blinded for the treatment arm, neuropathologist). This includes the evaluation of the number of inflammatory infiltrates and the number of cells per infiltrate, the degree of demyelination and of axonal damage. Another EAE model for MS which can be used for the compounds of the present invention and for identifying additional Myd88 inhibitors is described in Prinz et al 2006, J Clin Investigation, 116, 2 456-464, and Cohen et al 2010, J Immunol 184(1):212-21). In this model, C57B1 mice are immunized with MOG35-55 peptide ([…], SEQ ID NO: 4) emulsified in complete Freund's adjuvant (CFA) and pertussis toxin is administered systemically at the time of immunization and 48 h later. Mice are treated with the Myd88 inhibitor systemically and the mice are followed for development of ascending paralysis which typically begins on day 8-10 following immunization.
The effect of MIP administration on the clinical outcome of MOG35-55/CFA induced EAE was tested. […]
Following bioactivity characterization in vitro, the lead compound was evaluated for efficacy using the in vivo murine MOG35-55-induced EAE model of multiple sclerosis. […]

Series [3] is described as follows: Parallel Artificial Membrane Permeability Assay (PAMPA). The class given is in vitro ADME. The note with it: in comparison to metoprolol. From the text: FIG. 12. Papp of 4×4MyDI in the PAMPA model in comparison to metoprolol.
The target of series [4] is T1, MyD88 TIR domain (Homo sapiens, UniProt Q99836).
T1 construct: made in house
T1 sequence (Q99836 151-296): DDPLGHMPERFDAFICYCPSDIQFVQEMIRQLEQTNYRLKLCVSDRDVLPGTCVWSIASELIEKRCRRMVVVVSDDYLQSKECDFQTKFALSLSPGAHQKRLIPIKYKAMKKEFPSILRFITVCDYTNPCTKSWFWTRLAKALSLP
The experiment in a line: Competition assay: binding of biotinylated linear BB loop peptide to MyD88 TIR domain. The note with it: different concentrations. As for the experimental part: FIG. 9. 4×4MyDI binds to the BB loop region of the MyD88 TIR domain. A 96 well plate was coated with recombinant MyD88 (8 μg/ml) in coating buffer vs. buffer alone, and wells were blocked with 1% BSA. Biotinylated linear peptide was added to all wells (125 μg/ml) followed by streptavidin-HRP and substrate. The signal of linear peptide bound to its target was inhibited by incubation with the 4×4MyDI (*P<0.05) but not by incubation with the scrambled version of the linear peptide (SEQ ID NO: 5).
The ability of the 4×4MyDI compound to bind to the target region (the BB loop) of the MyD88 TIR domain, was evaluated using a newly-designed assay. For this goal a competition assay was established that tests the ability of the 4×4MyDI compound to prevent the binding of the biotinylated linear BB loop peptide to the MyD88 TIR domain. The MyD88 TIR domain was produced as a recombinant protein fused to the SUMO3 protein (Accession # NP_008867), purified, and attached to a 96 well plate. Binding of biotinylated RDVLPGT (SEQ. ID NO: 1) peptide was detected using streptavidin conjugated to horse radish peroxidase (HRP) followed by the addition of HRP substrate.

For `CC(C)C[C@@H]1NC(=O)[C@H](C(C)C)NC(=O)[C@H](CC(=O)O)NC(=O)[C@H](CCCNC(=N)N)NC(=O)CN(C(=O)[C@@H](N)Cc2c[nH]c3ccccc23)CCCCNC(=O)NCCCCN(CC(=O)NCC(=O)N[C@H](C(N)=O)[C@@H](C)O)C1=O` [4×4MyDI] (H-W[Nlys]RDVL[Nlys]GT-NH2; linker 2-7 via CO; N-terminus assumed), the “MyD88 inhibitory activity (reduction in TNFα production)” value in series [1] is listed as “intermediate activity”. Besides, the EAE disease severity entry is on record as “significant reduction in disease severity; also recorded: significantly reduced disease severity” in series [2] (4 mg/Kg i.p. three times a week from day 0); “behaved similarly to the control group” in series [2] (4 mg/Kg i.p. three times a week from day 7); “reduced disease severity even further” in series [2] (40 mg/Kg on day zero and day three only). For the same molecule, the survival entry in series [2] (4×4MyDI from day 0, three times a week, vs PBS) was “better rate of survival”. The “passive diffusion through a lipid layer (Papp PAMPA)” value in series [3] was “does not diffuse well through a lipid layer”. Further, in series [4], the “inhibition of binding of the biotinylated peptide to the MyD88 TIR domain” value is reported as “competitively inhibited”.
